Results: patent publication US8993717B2, “Gadd45beta targeting agents” (Imperial Innovations Limited, priority 2009, dated 2015)
Where two headings read alike, the source gives them in different places. Square brackets hold non-standard residues; d marks the D form. Peptide text beside a SMILES is read from it. * marks the point of attachment. Cbz = O=C(OCc1ccccc1)*

Assays:
Gadd45β/MKK7 interaction = biological target: T1, Gadd45β/MKK7 interaction (Homo sapiens, UniProt O14733); experiment: ELISA competition assay of biotin-hGadd45β binding to coated GST-MKK7
T1 construct: The GST-fused full-length kinase was coated for 16 h at 4° C., at a concentration of 42 nM; made in house
T1 sequence (O14733 1-419): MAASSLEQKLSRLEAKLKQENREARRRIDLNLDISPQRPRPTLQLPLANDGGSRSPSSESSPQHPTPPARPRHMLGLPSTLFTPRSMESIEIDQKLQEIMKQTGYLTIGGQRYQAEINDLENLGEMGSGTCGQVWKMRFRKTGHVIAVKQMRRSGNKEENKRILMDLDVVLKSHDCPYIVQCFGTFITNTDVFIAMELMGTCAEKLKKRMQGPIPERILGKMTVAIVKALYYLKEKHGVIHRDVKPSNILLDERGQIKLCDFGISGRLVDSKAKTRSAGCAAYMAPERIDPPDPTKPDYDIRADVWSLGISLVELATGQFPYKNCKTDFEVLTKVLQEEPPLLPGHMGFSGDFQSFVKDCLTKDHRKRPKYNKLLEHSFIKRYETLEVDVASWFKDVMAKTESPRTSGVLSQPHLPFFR
How it was run: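 GST-MKK7 (42 nM) coated in Tris pH 7.5 buffer, 16 h, 4 °C; biotin-hGadd45β (21 nM) added with competitor peptides (0.01–100 nM), 1 h, 37 °C. Streptavidin-HRP/o-phenylenediamine read at 490 nm; binding expressed as % of signal without competitor.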

[1] = system: primary multiple myeloma cells; experiment: Trypan blue exclusion assay in primary multiple myeloma cells from patients; type: cell-based, human; conditions: 1 μM or 10 μM, 48 hrs, 5 patients
Excerpt: To confirm that Z-/mDTPs retain cytotoxic activity in primary multiple myeloma cells, we examined the effects of Z-DTP1 and Z-DTP2 on the survival of multiple myeloma cells isolated from patients with a clinical diagnosis of multiple myeloma. To this end, multiple myeloma cells were purified from bone marrow (BM) aspirates of multiple myeloma patients by […], using CD138-conjugated magnetic beads, essentially as described in the reference by Hideshima T. et all 2006, Blood 107: 4053-4062. The purity of multiple myeloma cells was confirmed by flow cytometric, using and CD138 and anti-CD45 antibodies, also essentially in accordance with the procedure described in the reference by Hideshima T. et all 2006, Blood 107: 4053-4062. Purified CD138^+ BM cells were then cultured at a concentration of 4×10^5 cells/ml in wells of 96-well plates and treated with either 1 μM or 10 μM of Z-DTP1, Z-DTP2 or Z-DNC for 48 hrs. Cell viability was measured by cell counting using trypan blue exclusion assays (FIGS. 14A, 14B, 14C, 14D, and 14E).

[2] = system: sh-NS-expressing ARH-77 cells
[3] = system: sh-MKK7-expressing ARH-77 cells
[4] = system: U266, KMS-11, NCI-H929, BJAB and U937 tumour cell lines; experiment: [3H]thymidine incorporation assay in tumour cell lines at 10 μM; type: cell-based, human; conditions: up to 144 hrs, result in words
Experimental: All experiments were performed in triplicate.

[5] = Table V, FIG. 3C, read-out: IC50 ELISA

Row | IC50 (Gadd45β/MKK7 interaction; Table V, peptides 0.01-10 nM, read-out: IC50 ELISA) [nM] | Compound | cytotoxic activity in primary multiple myeloma cells [1] | IC50 [2] [nM] | IC50 [3] [µM] | tumoricidal/cytotoxic activity in tumour cell lines [4] | IC50 (Gadd45β/MKK7 interaction) [nM] | IC50 (Gadd45β/MKK7 interaction; [5]) [nM]
1 | 0.22 | NC(=O)[C@@H](Cc1ccccc1)NC(=O)[C@@H](Cc1c[nH]cn1)NC(=O)[C@@H](CC(=O)O)NC(=O)[C@@H](Cc1ccc(O)cc1)NC(=O)OCc1ccccc1 [Compound 1, Z-Tyr-Asp-His-Phe-NH2] (Cbz-[dY][dD][dH][dF]-NH2) | strong cytotoxic activity | 1400 | > 10 | – | – | –
2 | – | N=C(N)NCCC[C@@H](NC(=O)[C@@H](CCC(=O)O)NC(=O)[C@@H](Cc1ccc(O)cc1)NC(=O)OCc1ccccc1)C(=O)N[C@H](Cc1ccccc1)C(N)=O [Compound 9, Z-D-Tyr-D-Glu-D-Arg-D-Phe-NH2] (Cbz-[dY][dE][dR][dF]-NH2) | strong cytotoxic activity | 302 | > 10 | high cytotoxic activity | – | –
3 | – | CC(=O)N[C@H](Cc1ccc(O)cc1)C(=O)N[C@H](CCCNC(=N)N)C(=O)N[C@H](Cc1ccccc1)C(N)=O [Compound 17, Ac-D-Tyr-D-Arg-D-Phe-NH2] (Ac-[dY]-[dR]-[dF]-NH2) | Strong cytotoxic activity | 303 | > 10 | – | 0.157 | –
4 | – | CC(=O)N[C@H](Cc1ccc(O)cc1)C(=O)N[C@H](CC(=O)O)C(=O)N[C@H](Cc1c[nH]cn1)C(=O)N[C@H](Cc1ccccc1)C(N)=O [DTP1, Acetyl-(D-Tyr)-(D-Asp)-(D-His)-(D-Phe)-NH2] (Ac-[dY][dD][dH][dF]-NH2) | – | – | – | not | – | 0.22
5 | – | CC(=O)N[C@H](Cc1ccc(O)cc1)C(=O)N[C@H](CCC(=O)O)C(=O)N[C@H](CCCNC(=N)N)C(=O)N[C@H](Cc1ccccc1)C(N)=O [DTP2, Acetyl-(D-Tyr)-(D-Glu)-(D-Arg)-(D-Phe)-NH2] (Ac-[dY][dE][dR][dF]-NH2) | – | – | – | inactivity | – | 0.19
